Measured values: article PMC9516332 (Frontiers in Oncology, 2022)
Read-outs that look alike come from different tables or passages of the source.

Columns and labels:
[1] = system: 134 cancer cell lines; test: Cell viability assay (ATPlite, 72 hours), IC50 on cancer cell line panel
[2] = molecular target: T1, panel of 255 wild-type kinases (Homo sapiens, UniProt Q8IW41); test: Kinase panel profiling at 1 µmol/L (MSA or IMAP), percentage inhibition; format: biochemical; conditions: MAPKAPK5; 1 µmol/L single concentration; read-out: %-inhibition, MAPKAPK5
T1 sequence (Q8IW41 1-473): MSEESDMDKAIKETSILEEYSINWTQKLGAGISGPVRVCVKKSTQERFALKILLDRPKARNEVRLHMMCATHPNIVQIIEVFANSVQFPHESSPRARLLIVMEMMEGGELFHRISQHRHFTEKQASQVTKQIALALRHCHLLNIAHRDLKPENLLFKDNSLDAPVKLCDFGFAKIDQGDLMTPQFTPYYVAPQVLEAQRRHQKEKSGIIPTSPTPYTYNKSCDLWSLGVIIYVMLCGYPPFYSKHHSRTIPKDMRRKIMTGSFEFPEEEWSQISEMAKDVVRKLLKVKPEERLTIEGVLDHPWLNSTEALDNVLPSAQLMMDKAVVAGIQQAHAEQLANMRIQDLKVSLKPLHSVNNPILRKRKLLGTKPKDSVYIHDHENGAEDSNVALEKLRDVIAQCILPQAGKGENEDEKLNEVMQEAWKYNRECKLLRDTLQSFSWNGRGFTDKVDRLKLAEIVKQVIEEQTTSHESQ

[3] = molecular target: panel of 255 wild-type kinases (Homo sapiens, UniProt P45983); test: as above; format: biochemical; conditions: kinase JNK1; 1 µmol/L single concentration; read-out: %-inhibition at 1 µmol/L, JNK1

For CN1CCN(c2ccc(C(=O)Nc3n[nH]c4ccc(Cc5cc(F)cc(F)c5)cc34)c(NC3CCOCC3)c2)CC1 [entrectinib], which IC50 ([1]; Homo sapiens, MV4-11, read-out: IC50 in cell proliferation assay, MV4-11 cell line (FLT3 ITD)) is on record?
The IC50 was 0.281 µM.

And the IC50 ([1]; Homo sapiens, MeWo, read-out: IC50 in cell proliferation assay, MeWo cell line)?
The IC50 was 10.1 µM.

And the IC50 ([1]; Homo sapiens, NCCIT, read-out: IC50 in cell proliferation assay, NCC-IT cell line)?
Its IC50 is 6.38 µM.

And the IC50 ([1]; Homo sapiens, NCI-H82, read-out: IC50 in cell proliferation assay, cell line NCI-H82)?
Its IC50 is 9.7 µM.

And the IC50 ([1]; Homo sapiens, NCI-H460, read-out: IC50 in cell proliferation assay, NCI-H460 cell line)?
Its IC50 is 9.99 µM.

What about the IC50 ([1]; Homo sapiens, NCI-H661, read-out: IC50 in cell proliferation assay, NCI-H661 cell line) of the same molecule?
The IC50 was 4.03 µM.

And the IC50 ([1]; Homo sapiens, NCI-H716, read-out: IC50 in cell proliferation assay, cell line NCI-H716 (FGFR2-COL14A1))?
Its IC50 is 1.46 µM.

And the IC50 ([1]; Homo sapiens, NCI-H1650, read-out: IC50 in cell proliferation assay, NCI-H1650 cell line (EGFR exon19del))?
Its IC50 is 2.44 µM.

And the IC50 ([1]; Homo sapiens, NCI-H1975, read-out: IC50 in cell proliferation assay, NCI-H1975 cell line (EGFR p.L858R + p.T790M))?
The IC50 was 4.15 µM.

What about the IC50 ([1]; Homo sapiens, NCI-H2228, read-out: IC50 in cell proliferation assay, NCI-H2228 cell line (EML4-ALK)) of the same molecule?
The IC50 was 0.196 µM.

What about the IC50 ([1]; Homo sapiens, OVCAR-3, read-out: IC50 in cell proliferation assay, cell line OVCAR-3) of the same molecule?
Its IC50 is 8.35 µM.

What about the IC50 ([1]; Homo sapiens, PFSK-1, read-out: IC50 in cell proliferation assay, cell line PFSK-1) of the same molecule?
The IC50 was 7.82 µM.

What about the IC50 ([1]; Homo sapiens, RL95-2, read-out: IC50 in cell proliferation assay, cell line RL95-2 (EGFR p.A289V)) of the same molecule?
The IC50 was 3.32 µM.

And the IC50 ([1]; Homo sapiens, RPMI-7951, read-out: IC50 in cell proliferation assay, cell line RPMI-7951 (BRAF p.V600E))?
Its IC50 is 4.02 µM.

And the IC50 ([1]; Homo sapiens, RS4-11, read-out: IC50 in cell proliferation assay, cell line RS4;11)?
The IC50 was 8.24 µM.

And the IC50 ([1]; Homo sapiens, Rec1, read-out: IC50 in cell proliferation assay, cell line REC-1)?
The IC50 was 5.02 µM.

What about the IC50 ([1]; Homo sapiens, SHP77, read-out: IC50 in cell proliferation assay, cell line SHP-77) of the same molecule?
The IC50 was 12.7 µM.

What about the IC50 ([1]; Homo sapiens, SK-BR-3, read-out: IC50 in cell proliferation assay, cell line SK-BR-3 (ERBB2 amplification)) of the same molecule?
Its IC50 is 11.1 µM.

What about the IC50 ([1]; Homo sapiens, SK-N-AS, read-out: IC50 in cell proliferation assay, cell line SK-N-AS) of the same molecule?
The IC50 was 5.34 µM.

What about the IC50 ([1]; Homo sapiens, SK-N-FI, read-out: IC50 in cell proliferation assay, cell line SK-N-FI) of the same molecule?
Its IC50 is 4.06 µM.

What about the IC50 ([1]; Homo sapiens, SK-N-MC, read-out: IC50 in cell proliferation assay, cell line SK-N-MC) of the same molecule?
Its IC50 is 4.62 µM.

What about the IC50 ([1]; Homo sapiens, SK-N-SH, read-out: IC50 in cell proliferation assay, cell line SK-N-SH (ALK p.F1174L)) of the same molecule?
The IC50 was 2.8 µM.

And the IC50 ([1]; Homo sapiens, SNU-5, read-out: IC50 in cell proliferation assay, cell line SNU-5 (MET amplification))?
The IC50 was 9.58 µM.

And the IC50 ([1]; Homo sapiens, SNU-16, read-out: IC50 in cell proliferation assay, cell line SNU-16 (FGFR2 amplification))?
Its IC50 is 2.13 µM.

What about the IC50 ([1]; Homo sapiens, SNU-C2B, read-out: IC50 in cell proliferation assay, cell line SNU-C2B (EGFR p.R165Q)) of the same molecule?
The IC50 was 8.12 µM.

And the IC50 ([1]; Homo sapiens, SU-DHL-1, read-out: IC50 in cell proliferation assay, cell line SU-DHL-1 (NPM1-ALK))?
The IC50 was 0.607 µM.

And the IC50 ([1]; Homo sapiens, SU-DHL-6, read-out: IC50 in cell proliferation assay, cell line SU-DHL-6)?
The IC50 was 7.74 µM.

What about the IC50 ([1]; Homo sapiens, SUP-T1, read-out: IC50 in cell proliferation assay, cell line SUP-T1) of the same molecule?
The IC50 was 11 µM.

And the IC50 ([1]; Homo sapiens, SW48, read-out: IC50 in cell proliferation assay, cell line SW48 (EGFR p.G719S))?
The IC50 was 5.31 µM.

And the IC50 ([1]; Homo sapiens, SW480, read-out: IC50 in cell proliferation assay, cell line SW480)?
Its IC50 is 6.93 µM.

What about the IC50 ([1]; Homo sapiens, SW626, read-out: IC50 in cell proliferation assay, cell line SW626) of the same molecule?
Its IC50 is 7.38 µM.

What about the IC50 ([1]; Homo sapiens, SW780, read-out: IC50 in cell proliferation assay, cell line SW780 (FGFR3-BAIAP2L1)) of the same molecule?
The IC50 was 2.85 µM.

And the IC50 ([1]; Homo sapiens, SW837, read-out: IC50 in cell proliferation assay, cell line SW837)?
Its IC50 is 8.38 µM.

What about the IC50 ([1]; Homo sapiens, SW872, read-out: IC50 in cell proliferation assay, cell line SW872 (BRAF p.V600E)) of the same molecule?
The IC50 was 6.09 µM.

And the IC50 ([1]; Homo sapiens, SW900, read-out: IC50 in cell proliferation assay, cell line SW900)?
The IC50 was 6.64 µM.

And the IC50 ([1]; Homo sapiens, SW948, read-out: IC50 in cell proliferation assay, cell line SW948)?
Its IC50 is 9.44 µM.

What about the IC50 ([1]; Homo sapiens, SW982, read-out: IC50 in cell proliferation assay, cell line SW982 (BRAF p.V600E)) of the same molecule?
Its IC50 is 5.31 µM.

And the IC50 ([1]; Homo sapiens, SW-620, read-out: IC50 in cell proliferation assay, cell line SW620)?
The IC50 was 6.33 µM.

And the IC50 ([1]; Homo sapiens, T98G, read-out: IC50 in cell proliferation assay, cell line T98G)?
Its IC50 is 5.59 µM.

What about the IC50 ([1]; Homo sapiens, TCC-SUP, read-out: IC50 in cell proliferation assay, cell line TCCSUP) of the same molecule?
The IC50 was 6.42 µM.

And the IC50 ([1]; Homo sapiens, THP-1, read-out: IC50 in cell proliferation assay, cell line THP-1)?
Its IC50 is 12.9 µM.

And the IC50 ([1]; Homo sapiens, U2OS, read-out: IC50 in cell proliferation assay, cell line U2OS)?
Its IC50 is 4.45 µM.

What about the IC50 ([1]; Homo sapiens, U-87 MG, read-out: IC50 in cell proliferation assay, cell line U-87MG ATCC) of the same molecule?
The IC50 was 7.08 µM.

And the IC50 ([1]; Homo sapiens, U-118-MG, read-out: IC50 in cell proliferation assay, cell line U-118MG)?
The IC50 was 6.88 µM.

What about the IC50 ([1]; Homo sapiens, UMUC3, read-out: IC50 in cell proliferation assay, cell line UM-UC-3) of the same molecule?
Its IC50 is 6.87 µM.

What about the IC50 ([1]; Hs766T, read-out: IC50 in cell proliferation assay, Hs 766T cell line) of the same molecule?
The IC50 was 7.08 µM.

And the IC50 ([1]; L-82, read-out: IC50 in cell proliferation assay, L-82 cell line (NPM1-ALK))?
Its IC50 is 0.125 µM.

What about the IC50 ([1]; Rh30, read-out: IC50 in cell proliferation assay, cell line Rh30) of the same molecule?
The IC50 was 4.64 µM.

And the IC50 ([1]; read-out: IC50 in cell proliferation assay, 11-18 cell line (EGFR p.L858R))?
The IC50 was 4.17 µM.

And the IC50 ([1]; read-out: IC50 in cell proliferation assay, Hs 852.T cell line)?
Its IC50 is 4.09 µM.

What about the IC50 ([1]; read-out: IC50 in cell proliferation assay, JAR cell line) of the same molecule?
The IC50 was 5.04 µM.

And the IC50 ([1]; read-out: IC50 in cell proliferation assay, cell line 5637)?
Its IC50 is 5.56 µM.

What about the IC50 ([1]; read-out: IC50 in cell proliferation assay, cell line A-388) of the same molecule?
The IC50 was 10.3 µM.

And the IC50 ([1]; read-out: IC50 in cell proliferation assay, cell line DB)?
The IC50 was 10.5 µM.

What about the IC50 ([1]; read-out: IC50 in cell proliferation assay, cell line DEL (NPM1-ALK)) of the same molecule?
The IC50 was 0.216 µM.

What about the IC50 ([1]; read-out: IC50 in cell proliferation assay, cell line ES-2 (BRAF p.V600E)) of the same molecule?
The IC50 was 4.86 µM.

And the IC50 ([1]; read-out: IC50 in cell proliferation assay, cell line PA-1)?
Its IC50 is 3.03 µM.

What about the IC50 ([1]; read-out: IC50 in cell proliferation assay, cell line PC-3) of the same molecule?
Its IC50 is 11 µM.

What about the IC50 ([1]; read-out: IC50 in cell proliferation assay, cell line RD) of the same molecule?
Its IC50 is 5.09 µM.

And the IC50 ([1]; read-out: IC50 in cell proliferation assay, cell line RKO (BRAF p.V600E))?
Its IC50 is 4.68 µM.

What about the IC50 ([1]; read-out: IC50 in cell proliferation assay, cell line RL) of the same molecule?
The IC50 was 10.9 µM.

What about the IC50 ([1]; read-out: IC50 in cell proliferation assay, cell line RT-4 (FGFR3-TACC3)) of the same molecule?
The IC50 was 2.94 µM.

And the IC50 ([1]; read-out: IC50 in cell proliferation assay, cell line SR (NPM1-ALK))?
Its IC50 is 0.72 µM.

What about the IC50 ([1]; read-out: IC50 in cell proliferation assay, cell line T24) of the same molecule?
The IC50 was 7.12 µM.

And the IC50 ([1]; read-out: IC50 in cell proliferation assay, cell line TT (RET p.C634W))?
The IC50 was 9.26 µM.

What about the IC50 ([1]; read-out: IC50 in cell proliferation assay, cell line VA-ES-BJ) of the same molecule?
The IC50 was 6.41 µM.

What about the inhibition at 1 µM [2] of the same molecule?
Its inhibition at 1 µM is 0.65%.

What about the inhibition at 1 µM [3] of the same molecule?
Its inhibition at 1 µM is -0.262%.
